The results in this text go back to patent US11867689B2, “Engineered renal tissues, arrays thereof, and methods of making the same” (Organovo, Inc., priority 2014, dated 2024).

In data set [1] the test system is 3D renal tubule model (interstitial tissue and epithelial tissue). Format: cell-based, human.
Data set [2] deals with 3D renal tubule model. The format is cell-based, human. From the text: To reduce the thickness and cellularity of the interstitial layer, the cell ratio was changed to 50% fibroblasts/50% HUVEC the concentration of the cells was 1.25×10^8 cells/mL. The interstitial layer of the renal proximal tubule model is composed of renal fibroblasts and HUVECs in Novogel® 2.0. […] E-cadherin (green) at the lateral membranes between RPTECs corresponds to tight junctions (FIGS. 9A, B and C). Further, the basement membrane corresponding to the interstitial layer produces collagen (FIGS. 9A and B; stained with red). H & E staining is shown (FIG. 10A), and brush borders are indicated (FIG. 11A, arrows). Trichrome staining indicates collagen secretion (FIGS. 10B, blue and 11B, arrows), and CD31 staining indicates the presence of HUVEC networks (FIG. 12, asterisks). […] As a positive control, hTERT-RPTEC cells cultured as a monolayer in 2D were assessed. As a negative control, bioprinted renal interstitial tissues without epithelium were also assayed to verify that the detected GGT activity was epithelial-specific. At culture day 3, 10, 14, 21, or 28, 2D hTERT-RPTEC, 3D interstitium tissues, or 3D bioprinted tubule tissues were homogenized and assessed for functional GGT enzymatic activity using a colorimetric assay available from Sigma-Aldrich. […]

Data set [3] relates to interstitial tissue alone.
Data set [4] deals with epithelial layer comprising primary cells (070615-RPTEC). Briefly: GGT activity, renal tubule model with primary epithelial layer. Format: cell-based, human. To be noted: primary cells (070615-RPTEC) compared with hTERT-RPTEC; FIG. 23B.
Description: To assess the maturity and function of the epithelial component of the 3D bioprinted tubule model, tissues were homogenized and assayed for gamma glutamyl-transferase (GGT) activity. […] As a positive control, hTERT-RPTEC cells cultured as a monolayer in 2D were assessed. […] At culture day 3, 10, 14, 21, or 28, 2D hTERT-RPTEC, 3D interstitium tissues, or 3D bioprinted tubule tissues were homogenized and assessed for functional GGT enzymatic activity using a colorimetric assay available from Sigma-Aldrich.
For data set [5], the system named is 3D renal tubule model. Briefly: histology of treated 3D renal tubule models. The conditions noted are these: 50 ng/mL TGFβ; FIG. 22D. The format is cell-based, human.

Turning to `C[C@@H]1[C@H](O)[C@@H](C)/C=C/C=C/C=C/C=C/C=C/C=C/C=C/[C@H](O[C@@H]2O[C@H](C)[C@@H](O)[C@H](N)[C@@H]2O)C[C@@H]2O[C@](O)(C[C@@H](O)C[C@@H](O)[C@H](O)CC[C@@H](O)C[C@@H](O)CC(=O)O[C@H]1C)C[C@H](O)[C@H]2C(=O)O` [AmpB, amphotericin B], the “toxicity by alamarBlue assay” value in data set [1] is listed as “dose dependent cytotoxicity”; in data set [3], “resistant”. For the same compound, in data set [2], the GGT activity result is listed as “dose dependent reduction in GGT activity”.

Turning to `N.N.[Cl][Pt][Cl]` [cisplatin], the GGT activity result in data set [2] was “dose dependent reduction in GGT activity”. Also, the “sensitivity in the GGT assay, primary versus immortalized cells” value in data set [4] is recorded as “enhanced sensitivity”.

As to “TGFβ: listed among common cytotoxic agents; treatment at 50 ng/mL increased fibrosis”, the “Masson's trichrome staining histology (fibrosis)” value in data set [5] is on record as “increase in fibrosis without the overt cell death”.
